Measurements published in PubChem BioAssay AID1745844 (Carcinogenic Potency Database (CPDB), 2022).
Where “and” joins values, the source holds several entries; their conditions need not be identical. Identical values can stand only once. Calls of active or inactive are those of the source. The rule behind the calls is not given here.

Test system: rodent lifetime carcinogenesis bioassay, tumor incidence TD50
Assay: carcinogenic potency in animals, long-term in vivo studies, CPDB compilation (AID 1745844)

S=P(N1CC1)(N1CC1)N1CC1
0.408 mg/kg/day: TD50 (mouse, strain B6C3F1, females, i.p., site: lung, lesion: alveolar/bronchiolar adenoma + alveolar/bronchiolar carcinoma, dosed 47 weeks, study length 86 weeks) | TD50 (mouse, strain B6C3F1, females, i.p., site: lung, lesion: alveolar/bronchiolar adenoma, dosed 47 weeks, study length 86 weeks)
0.0404 mg/kg/day: TD50 (rat, strain Sprague-Dawley, females, i.p., site: any site (literature study), lesion: several types, types named in the paper, dosed 36 weeks, study length 81 weeks)
0.102 mg/kg/day: TD50 (mouse, strain B6C3F1, males, i.p., site: all sites, lesion: squamous-cell carcinoma, dosed 52 weeks, study length 83 weeks)
active: TD50 (mouse, strain B6C3F1, females, i.p., site: all sites, lesion: lymphocytic leukemia + lymphoma, dosed 47 weeks, study length 86 weeks) 0.216 mg/kg/day and 0.21 mg/kg/day | TD50 (mouse, strain B6C3F1, males, i.p., site: all sites, lesion: leukemia + lymphoma, dosed 52 weeks, study length 83 weeks) 0.241 mg/kg/day and 0.238 mg/kg/day | TD50 (mouse, strain B6C3F1, males, i.p., site: all sites, lesion: lymphocytic leukemia + lymphoma, dosed 52 weeks, study length 83 weeks) 0.265 mg/kg/day and 0.262 mg/kg/day | TD50 (mouse, strain B6C3F1, males, i.p., site: preputial gland, lesion: squamous-cell carcinoma, dosed 52 weeks, study length 83 weeks) 0.3 mg/kg/day | TD50 (mouse, strain B6C3F1, males, i.p., site: skin, lesion: squamous-cell carcinoma, dosed 52 weeks, study length 83 weeks) 0.28 mg/kg/day | TD50 (rat, strain BR 46, males, i.v., site: any site (literature study), lesion: several types, types named in the paper, dosed 52 weeks, study length 104 weeks) 0.186 mg/kg/day | TD50 (rat, strain Sprague-Dawley, females, i.p., site: brain + nasal cavity, lesion: olfactory neuroblastoma + carcinoma, NOS, dosed 36 weeks, study length 81 weeks) 0.819 mg/kg/day | TD50 (rat, strain Sprague-Dawley, females, i.p., site: ear canal + skin, lesion: squamous-cell carcinoma, dosed 36 weeks, study length 79 weeks) 0.214 mg/kg/day | TD50 (rat, strain Sprague-Dawley, females, i.p., site: ear canal + skin, lesion: squamous-cell carcinoma, dosed 36 weeks, study length 81 weeks) 0.217 mg/kg/day | TD50 (rat, strain Sprague-Dawley, females, i.p., site: ear canal, lesion: squamous-cell carcinoma, dosed 36 weeks, study length 79 weeks) 0.327 mg/kg/day | TD50 (rat, strain Sprague-Dawley, males, i.p., site: all sites, lesion: leukemia + lymphoma, dosed 32 weeks, study length 79 weeks) 0.224 mg/kg/day | TD50 (rat, strain Sprague-Dawley, males, i.p., site: all sites, lesion: leukemia, dosed 32 weeks, study length 79 weeks) 0.29 mg/kg/day | TD50 (rat, strain Sprague-Dawley, males, i.p., site: all sites, lesion: leukemia, dosed 32 weeks, study length 82 weeks) 0.312 mg/kg/day | TD50 (rat, strain Sprague-Dawley, males, i.p., site: all sites, lesion: lymphocytic leukemia, dosed 32 weeks, study length 79 weeks) 0.374 mg/kg/day | TD50 (rat, strain Sprague-Dawley, males, i.p., site: brain + nasal cavity, lesion: neuroblastoma + olfactory neuroblastoma + carcinoma, NOS, dosed 32 weeks, study length 82 weeks) 0.285 mg/kg/day | TD50 (rat, strain Sprague-Dawley, males, i.p., site: ear canal + skin, lesion: squamous-cell carcinoma, dosed 32 weeks, study length 79 weeks) 0.122 mg/kg/day | TD50 (rat, strain Sprague-Dawley, males, i.p., site: skin, lesion: squamous-cell carcinoma, dosed 32 weeks, study length 79 weeks) 0.155 mg/kg/day
0.241 mg/kg/day: TD50 (mouse, strain B6C3F1, males, i.p., site: all sites, lesion: leukemia + lymphocytic leukemia + lymphoma, dosed 52 weeks, study length 83 weeks)
0.303 mg/kg/day: TD50 (rat, strain BR 46, males, i.v., site: any site (literature study), lesion: malignant tumor, dosed 52 weeks, study length 104 weeks)
0.0855 mg/kg/day: TD50 (mouse, strain B6C3F1, females, i.p., site: any site (literature study), lesion: several types, types named in the paper, dosed 47 weeks, study length 86 weeks)
0.22 mg/kg/day: TD50 (rat, strain Sprague-Dawley, males, i.p., site: subcutaneous tissue, lesion: sarcoma, NOS, dosed 32 weeks, study length 79 weeks)
0.182 mg/kg/day: TD50 (rat, strain Sprague-Dawley, females, i.p., site: mammary gland, lesion: adenocarcinoma, NOS, dosed 36 weeks, study length 79 weeks)
0.236 mg/kg/day: TD50 (rat, strain Sprague-Dawley, females, i.p., site: uterus, lesion: adenocarcinoma, NOS, dosed 36 weeks, study length 79 weeks)
0.243 mg/kg/day: TD50 (rat, strain Sprague-Dawley, females, i.p., site: uterus, lesion: adenocarcinoma, NOS, dosed 36 weeks, study length 81 weeks)
0.584 mg/kg/day: TD50 (mouse, strain B6C3F1, males, i.p., site: lung, lesion: alveolar/bronchiolar adenoma + alveolar/bronchiolar carcinoma, dosed 52 weeks, study length 83 weeks)
1.12 mg/kg/day: TD50 (mouse, strain B6C3F1, females, i.p., site: liver, lesion: hepatocellular adenoma + hepatocellular carcinoma + neoplastic nodule, dosed 47 weeks, study length 86 weeks) | TD50 (mouse, strain B6C3F1, males, i.p., site: liver, lesion: hepatocellular adenoma + hepatocellular carcinoma + neoplastic nodule, dosed 52 weeks, study length 83 weeks)
0.0332 mg/kg/day: TD50 (rat, strain Sprague-Dawley, males, i.p., site: any site (literature study), lesion: several types, types named in the paper, dosed 32 weeks, study length 82 weeks)
0.646 mg/kg/day: TD50 (rat, strain BR 46, males, i.v., site: any site (literature study), lesion: benign tumor, dosed 52 weeks, study length 104 weeks)
0.069 mg/kg/day: TD50 (mouse, strain B6C3F1, males, i.p., site: any site (literature study), lesion: several types, types named in the paper, dosed 52 weeks, study length 83 weeks)

Brc1cc(Br)c2cccnc2c1
inactive: carcinogen call (rat, strain Fischer 344, females, in feed, site: liver, lesion: hyperplastic nodule, dosed 104 weeks, study length 104 weeks) negative | TD50 (rat, strain Fischer 344, males, in feed, site: liver, lesion: hyperplastic nodule, dosed 104 weeks, study length 104 weeks) 754 mg/kg/day | TD50 (rat, strain Fischer 344, males, in feed, site: testis, lesion: interstitial-cell tumor, dosed 104 weeks, study length 104 weeks) 69.4 mg/kg/day

ClC#CCl
active: TD50 (mouse, strain NMRI, females, inhaled, site: Harderian gland, lesion: cystadenoma, dosed 52 weeks, study length 98 weeks) 3.02 mg/kg/day | TD50 (mouse, strain NMRI, females, inhaled, site: Harderian gland, lesion: cystadenoma, dosed 78 weeks, study length 119 weeks) 0.55 mg/kg/day | TD50 (mouse, strain NMRI, females, inhaled, site: Harderian gland, lesion: cystadenoma, dosed 78 weeks, study length 129 weeks) 0.499 mg/kg/day | TD50 (mouse, strain NMRI, females, inhaled, site: kidney, lesion: cystadenoma, dosed 52 weeks, study length 98 weeks) 1.03 mg/kg/day | TD50 (mouse, strain NMRI, females, inhaled, site: kidney, lesion: cystadenoma, dosed 78 weeks, study length 119 weeks) 1.08 mg/kg/day | TD50 (mouse, strain NMRI, females, inhaled, site: kidney, lesion: cystadenoma, dosed 78 weeks, study length 129 weeks) 7.8 mg/kg/day | carcinogen call (mouse, strain NMRI, males, inhaled, site: Harderian gland, lesion: cystadenoma, dosed 52 weeks, study length 92 weeks) positive | TD50 (mouse, strain NMRI, males, inhaled, site: Harderian gland, lesion: cystadenoma, dosed 78 weeks, study length 118 weeks) 0.687 mg/kg/day | TD50 (mouse, strain NMRI, males, inhaled, site: Harderian gland, lesion: cystadenoma, dosed 78 weeks, study length 127 weeks) 1.01 mg/kg/day | TD50 (mouse, strain NMRI, males, inhaled, site: kidney, lesion: cystadenocarcinoma, dosed 52 weeks, study length 92 weeks) 3.89 mg/kg/day | TD50 (mouse, strain NMRI, males, inhaled, site: kidney, lesion: cystadenocarcinoma, dosed 78 weeks, study length 118 weeks) 4.52 mg/kg/day | TD50 (mouse, strain NMRI, males, inhaled, site: kidney, lesion: cystadenocarcinoma, dosed 78 weeks, study length 127 weeks) 0.501 mg/kg/day | TD50 (mouse, strain NMRI, males, inhaled, site: kidney, lesion: cystadenoma, dosed 52 weeks, study length 92 weeks) 0.486 mg/kg/day | TD50 (mouse, strain NMRI, males, inhaled, site: kidney, lesion: cystadenoma, dosed 78 weeks, study length 118 weeks) 0.769 mg/kg/day | TD50 (mouse, strain NMRI, males, inhaled, site: kidney, lesion: cystadenoma, dosed 78 weeks, study length 127 weeks) 0.466 mg/kg/day | TD50 (rat, strain Wistar, females, inhaled, site: all sites, lesion: malignant lymphoma, dosed 78 weeks, study length 150 weeks) 3.86 mg/kg/day | TD50 (rat, strain Wistar, females, inhaled, site: kidney, lesion: cystadenoma, dosed 78 weeks, study length 150 weeks) 11.5 mg/kg/day | TD50 (rat, strain Wistar, females, inhaled, site: liver, lesion: cholangioma, dosed 78 weeks, study length 150 weeks) 3.86 mg/kg/day | TD50 (rat, strain Wistar, females, inhaled, site: liver, lesion: hepatocellular adenoma, dosed 78 weeks, study length 150 weeks) 17.5 mg/kg/day | TD50 (rat, strain Wistar, males, inhaled, site: kidney, lesion: cystadenocarcinoma, dosed 78 weeks, study length 157 weeks) 26.2 mg/kg/day | TD50 (rat, strain Wistar, males, inhaled, site: kidney, lesion: cystadenoma, dosed 78 weeks, study length 157 weeks) 3.34 mg/kg/day | TD50 (rat, strain Wistar, males, inhaled, site: liver, lesion: cholangioma, dosed 78 weeks, study length 157 weeks) 3.97 mg/kg/day | TD50 (rat, strain Wistar, males, inhaled, site: liver, lesion: hepatocellular adenoma, dosed 78 weeks, study length 157 weeks) 12.9 mg/kg/day
2.73 mg/kg/day: TD50 (mouse, strain NMRI, females, inhaled, site: lung, lesion: adenoma, dosed 78 weeks, study length 119 weeks)
